Patent publication US8420646B2, “Tricyclic tetrahydroquinoline antibacterial agents” (PAH P&U LLC, priority 2002, dated 2013)
Values joined by “and” are separate entries in the source; they are usually repeats but may differ in a detail not shown here. Equal entries are not always repeated.

Each molecule was assayed against T1, E. coli DNA gyrase (Escherichia coli, UniProt P0AES4+P0AES6) (assay: In Vitro DNA Gyrase Assay (supercoiling of relaxed pBR322, EtBr-stained agarose gel)). Settings: Gyrase IC50 (μM), E. coli DNA gyrase holoenzyme A2B2; substrate relaxed pBR322; relaxed vs. supercoiled DNA on 0.8% agarose gel.
T1 construct: made in house; host or cells: strains overexpressing each subunit individually
Assay type: biochemical
From the text: DNA gyrase is a bacterial topoisomerase that introduces negative supercoils into DNA. The DNA gyrase assay measures the degree of enzymatic activity by quantitating relative amounts of relaxed vs. supercoiled DNA on an EtBr-stained 0.8% agarose gel. The substrate is relaxed pBR322. The enzyme is E. coli DNA gyrase which is purified from strains overexpressing each of the subunits individually (there are two: A and B and the holoenzyme consists of the heterodimer A2B2). See for example, Hallett et al. Cloning of the DNA gyrase genes under tac promoter control: overproduction of the gyrase A and B proteins. Gene 93: 139-142 (1990); Simon et al. Biochemical complementation studies in vitro of gyrase subunits from different species. FEBS Lett 373:88-92 (1995); and O'Dea et al. Mutations in the B subunit of Escherichia coli DNA gyrase that affect ATP-dependent reactions. J. Biol Chem 1996 271:9723-9 (1996).
In the below chart, racemic mixtures are denoted with (±)- and enantiomerically enriched samples are denoted by (−)- or (+)-.

T1 sequence (P0AES4 whole entry, one chain of several): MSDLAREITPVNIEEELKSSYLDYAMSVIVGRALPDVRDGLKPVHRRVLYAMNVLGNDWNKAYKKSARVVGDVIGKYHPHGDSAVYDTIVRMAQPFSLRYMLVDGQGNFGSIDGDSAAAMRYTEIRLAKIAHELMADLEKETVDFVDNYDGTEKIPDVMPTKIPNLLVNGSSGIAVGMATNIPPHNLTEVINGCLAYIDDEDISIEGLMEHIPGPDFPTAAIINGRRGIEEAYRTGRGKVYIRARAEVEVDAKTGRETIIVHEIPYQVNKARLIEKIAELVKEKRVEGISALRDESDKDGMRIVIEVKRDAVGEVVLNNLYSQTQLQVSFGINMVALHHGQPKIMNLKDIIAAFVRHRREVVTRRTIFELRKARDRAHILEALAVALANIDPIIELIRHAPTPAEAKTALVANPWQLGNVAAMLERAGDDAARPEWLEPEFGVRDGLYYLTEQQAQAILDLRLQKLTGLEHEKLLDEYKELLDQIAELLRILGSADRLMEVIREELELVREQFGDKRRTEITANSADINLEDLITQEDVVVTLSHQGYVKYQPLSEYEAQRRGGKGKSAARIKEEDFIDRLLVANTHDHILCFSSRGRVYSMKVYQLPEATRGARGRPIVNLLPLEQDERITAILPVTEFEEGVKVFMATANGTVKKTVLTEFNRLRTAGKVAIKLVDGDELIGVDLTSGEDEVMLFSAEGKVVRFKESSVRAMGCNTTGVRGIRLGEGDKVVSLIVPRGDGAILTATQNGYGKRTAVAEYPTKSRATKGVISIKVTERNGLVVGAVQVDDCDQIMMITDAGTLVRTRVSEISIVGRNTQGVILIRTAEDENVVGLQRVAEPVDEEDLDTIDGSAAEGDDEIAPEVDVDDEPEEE

Point of comparison: C[C@@H]1CN2c3ccc([N+](=O)[O-])cc3CC3(C(=O)NC(=O)NC3=O)[C@@H]2[C@@H](C)O1 (racemic) [Example 1], IC50 19 µM. Against it:
- C[C@@H]1CN2c3ccccc3CC3(C(=O)NC(=O)NC3=O)[C@H]2[C@H](C)O1 (racemic) [Example 2, 1,2,4,4a-Tetrahydro-cis-2,4-dimethylspiro[[1,4]oxazino[4,3-a]quinoline-5(6H), 5′(2′H)-pyrimidine]-2′,4′,6′(1′H,3′H)-trione] — 2.4-fold higher, 45.6 µM
- C[C@@H]1CN2c3ccc(F)cc3CC3(C(=O)NC(=O)NC3=O)[C@H]2[C@H](C)O1 (racemic) [Example 4, 8-Fluoro-1,2,4,4a-tetrahydro-cis-2,4-dimethylspiro[[1,4]oxazino[4,3-a]quinoline-5(6H), 5′(2′H)-pyrimidine]-2′,4′,6′(1′H,3′H)-trione] — 3.7-fold higher, 70.2 µM
- CC(=O)c1ccc2c(c1)CC1(C(=O)NC(=O)NC1=O)[C@H]1[C@H](C)O[C@H](C)CN21 (racemic) [Example 18, 8-Acetyl-1,2,4,4a-tetrahydro-2,4-dimethylspiro[[1,4]oxazino[4,3-a]quinoline-5(6H),5′(2H)-pyrimidine)-2′,4′,6′(1′H,3′H)-trione] — 2.3-fold lower, 8.4 µM
- COC(=O)c1ccc2c(c1)CC1(C(=O)NC(=O)NC1=O)[C@H]1[C@H](C)O[C@H](C)CN21 (relative stereo) [Example 43, rel-Methyl (2R,4S,4aS)1,1′-2,3′,4,4a,6′-Octahydro-2,4-dimethyl-2′,4′,6′-trioxospiro[[1,4]oxazino[4,3-a]quinoline-5(6H),5′(2′H)-pyrimidine]-8-carboxylate] — within 1.5-fold, 24 µM
- C[C@@H]1CN2c3ccc(C#N)cc3CC3(C(=O)NC(=O)NC3=O)[C@H]2[C@H](C)O1 [Example 6, 1,1′,2,3′4,4′,4a, 6′-Octrahydro-2,4′,6′-trioxospiro[[1,4]oxazino[4,3-a]quinoline-5(6H), 5′(2′H)-pyrimidine]-8-carbonitrile] — within 1.5-fold, 13.8 µM

With C[C@@H]1CN2c3ccc([N+](=O)[O-])cc3CC3(C(=O)NC(=O)NC3=O)[C@H]2[C@H](C)O1 (stereo in doubt) [Example 1] the IC50 was 11.8 µM and 6.1 µM.
In the case of C[C@@H]1OCCN2c3ccc([N+](=O)[O-])cc3CC3(C(=O)NC(=O)NC3=O)[C@@H]12 (stereo in doubt) [Example 25], the IC50 is reported as 18.2 µM and 32 µM.
